According to US10030021B2, “Spirocyclic morphinans and use thereof” (Purdue Pharma L.P., priority 2014, dated 2018):

Assays:
[1] = target: T1, human kappa opioid receptor (κ) (Homo sapiens, UniProt P41145); assay: κ-opioid receptor radioligand ([3H]-U69,593) dose displacement binding assay
T1 construct: expressed in transfected cells; host or cells: HEK-293
Description: Membranes from recombinant HEK-293 cells expressing the human kappa opioid receptor (κ) (cloned in house) were prepared by lysing cells in ice cold hypotonic buffer (2.5 mM MgCl2, 50 mM HEPES, pH 7.4) (10 mL/10 cm dish) followed by homogenization with a tissue grinder/Teflon pestle. Membranes were collected by centrifugation at 30,000×g for 15 min at 4° C. and pellets were resuspended in hypotonic buffer to a final concentration of 1-3 mg/mL. Protein concentrations were determined using the BioRad protein assay reagent with bovine serum albumen as standard. Aliquots of κ receptor membranes were stored at −80° C.
Radioligand dose displacement assays used 0.4 nM [^3H]-U69,593 (GE Healthcare, Piscataway, N.J.; 40 Ci/mmole) with 15 μg membrane protein (recombinant κ opioid receptor expressed in HEK 293 cells; in-house prep) in a final volume of 200 μl binding buffer (5% DMSO, 50 mM Trizma base, pH 7.4). Non-specific binding was determined in the presence of 10 μM unlabeled naloxone or U69,593. All reactions were performed in 96-well polypropylene plates for 1 hour at a temperature of about 25° C. […] Fifty μl/well scintillation cocktail (Perkin Elmer, Shelton, Conn.) was added and plates were counted in a Packard Top-Count for 1 min/well.

μ-opioid receptor = target: T2, μ-opioid receptor (Homo sapiens, UniProt P35372); assay: μ-opioid receptor [35S]GTPγS functional assay; type: biochemical; conditions: for Emax: maximal effect relative to DAMGO
T2 construct: purchased Perkin Elmer, Shelton, Conn
Description: [^35S]GTPγS functional assays were conducted using freshly thawed μ-receptor membranes (Perkin Elmer, Shelton, Conn.). Assay reactions were prepared by sequentially adding the following reagents to binding buffer (100 mM NaCl, 10 mM MgCl2, 20 mM HEPES, pH 7.4) on ice (final concentrations indicated): membrane protein (0.026 mg/mL), saponin ([…]), GDP ([…]) and [^35S]GTPγS (0.20 nM; Perkin Elmer, Shelton, Conn.). The prepared membrane solution (190 μl/well) was transferred to 96-shallow well polypropylene plates containing 10 μl of 20× concentrated stock solutions of the agonist [D-Ala^2, N-methyl-Phe^4 Gly-ol^5]-enkephalin (DAMGO) prepared in dimethyl sulfoxide (DMSO). Plates were incubated for 30 min at about 25° C. with shaking. Reactions were terminated by rapid filtration onto 96-well Unifilter GF/B filter plates (Perkin Elmer, Shelton, Conn.) using a 96-well tissue harvester (Perkin Elmer, Shelton, Conn.) followed by three filtration washes with 200 μl of ice-cold wash buffer (10 mM NaH2PO4, 10 mM Na2HPO4, pH 7.4). Filter plates were subsequently dried at 50° C. for 2-3 hours. BetaScint scintillation cocktail (Perkin Elmer, Shelton, Conn.) was added (50 μl/well) and plates were counted using a Packard Top-Count for 1 min/well. Data were analyzed using the sigmoidal dose-response curve fitting functions in GraphPad PRISM v. 3.0, or an in-house function for non-linear, sigmoidal dose-response curve-fitting.
μ GTP EC50 is the concentration of a compound providing 50% of the maximal response for the compound at a μ-opioid receptor.
μ GTP Emax (%) is the maximal effect elicited by a compound relative to the effect elicited by DAMGO, a standard agonist. Generally, the μ GTP Emax (%) value measures the efficacy of a compound to treat or prevent pain or other Conditions.

κ opioid receptor = target: T3, κ opioid receptor (Homo sapiens, UniProt P41145); assay: κ-opioid receptor [35S]GTPγS functional assay; type: biochemical
T3 construct: expressed in transfected cells; host or cells: HEK-293 (inferred from the in-house κ membrane preparation)
Description: Functional [^35S]GTPγS binding assays were conducted as follows. κ opioid receptor membrane solution was prepared by sequentially adding final concentrations of 0.026 μg/μl κ membrane protein (in-house), 10 μg/mL saponin, 3 μM GDP and 0.20 nM [^35S]GTPγS to binding buffer (100 mM NaCl, 10 mM MgCl2, 20 mM HEPES, pH 7.4) on ice. The prepared membrane solution (190 μl/well) was transferred to 96-shallow well polypropylene plates containing 10 μl of 20× concentrated stock solutions of agonist prepared in DMSO. Plates were incubated for 30 min at a temperature of about 25° C. with shaking. Reactions were terminated by rapid filtration onto 96-well Unifilter GF/B filter plates (Perkin Elmer, Shelton, Conn.) using a 96-well tissue harvester (Packard) and followed by three filtration washes with 200 μl ice-cold binding buffer (10 mM NaH2PO4, 10 mM Na2HPO4, pH 7.4). Filter plates were subsequently dried at 50° C. for 2-3 hours. Fifty μ1/well scintillation cocktail (Perkin Elmer, Shelton, Conn.) was added and plates were counted in a Packard Top-Count for 1 min/well.
κ GTP EC50 is the concentration of a compound providing 50% of the maximal response for the compound at a κ receptor.
κ GTP Emax (%) is the maximal effect elicited by a compound relative to the effect elicited by U69,593.

T2 sequence (P35372 whole entry, species assumed): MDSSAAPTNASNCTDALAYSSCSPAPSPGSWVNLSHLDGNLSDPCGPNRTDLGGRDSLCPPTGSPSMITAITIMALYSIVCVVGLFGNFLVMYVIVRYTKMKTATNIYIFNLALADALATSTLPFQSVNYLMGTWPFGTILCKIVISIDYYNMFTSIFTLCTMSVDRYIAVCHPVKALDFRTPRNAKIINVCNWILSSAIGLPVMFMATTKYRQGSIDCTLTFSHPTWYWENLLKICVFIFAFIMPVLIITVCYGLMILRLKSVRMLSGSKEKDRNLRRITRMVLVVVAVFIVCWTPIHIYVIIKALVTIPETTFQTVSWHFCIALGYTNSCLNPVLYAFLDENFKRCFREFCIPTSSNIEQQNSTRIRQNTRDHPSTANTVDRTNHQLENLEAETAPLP
T3 sequence (P41145 whole entry): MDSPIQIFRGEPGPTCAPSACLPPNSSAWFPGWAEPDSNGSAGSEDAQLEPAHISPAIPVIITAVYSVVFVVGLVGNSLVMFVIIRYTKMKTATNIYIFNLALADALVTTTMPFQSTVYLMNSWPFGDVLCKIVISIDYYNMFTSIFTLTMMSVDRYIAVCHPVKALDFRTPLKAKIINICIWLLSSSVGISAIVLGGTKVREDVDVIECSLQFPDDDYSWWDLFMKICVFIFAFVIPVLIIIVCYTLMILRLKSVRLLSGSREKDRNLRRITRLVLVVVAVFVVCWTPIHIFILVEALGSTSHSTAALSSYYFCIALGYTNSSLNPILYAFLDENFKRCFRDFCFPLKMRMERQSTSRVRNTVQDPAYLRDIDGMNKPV
T1 sequence (P41145 whole entry): as above

Compound | Ki [1] [nM] | EC50 (μ-opioid receptor) [nM] | Emax (μ-opioid receptor) [%] | EC50 (κ opioid receptor) [nM] | Emax (κ opioid receptor; maximal effect relative to U69,593) [%]
CCN1C(=O)N(CC)[C@]2(CC[C@H]3[C@H]4Cc5ccc(O)cc5[C@@]3(CCN4C)C2)C1=O [Compound 21, (4S,4b′S,8a′R,9′R)-1,3-diethyl-3′-hydroxy-11′-methyl-8′,8a′,9′,10′-tetrahydro-5′H,7′H-spiro[imidazolidine-4,6′-[9,4b](epiminoethano)phenanthrene]-2,5-dione] | 10.5 ± 1.11 | 54.7 ± 7.76 | 24.7 ± 2.46 | 221 ± 22.6 | 56.7 ± 3.66
CCN1C(=O)N(CC)[C@]2(CC[C@@]3(O)[C@H]4Cc5ccc(C#N)cc5[C@@]3(CCN4C)C2)C1=O [Compound 32, (4S,4b′R,8a′S,9′R)-1,3-diethyl-8a′-hydroxy-11′-methyl-2,5-dioxo-8′,8a′,9′,10′-tetrahydro-5′H,7′H-spiro[imidazolidine-4,6′-[9,4b](epiminoethano)phenanthrene]-3′-carbonitrile] | – | > 20000 | 16.3 ± 1.76 | – | –
CCN1C(=O)N(CC)[C@]2(CC[C@@]3(O)[C@H]4Cc5ccc(C(N)=O)cc5[C@@]3(CCN4C)C2)C1=O [Compound 33, (4S,4b′R,8a′S,9′R)-1,3-diethyl-8a′-hydroxy-11′-methyl-2,5-dioxo-8′,8a′,9′,10′-tetrahydro-5′H,7′H-spiro[imidazolidine-4,6′-[9,4b](epiminoethano)phenanthrene]-3′-carboxamide] | – | 974 ± 117 | 39.3 ± 1.78 | – | –
CCN1C(=O)N(CC)[C@]2(CC[C@@]3(O)[C@H]4Cc5ccc(/C(N)=N\O)cc5[C@@]3(CCN4C)C2)C1=O [Compound 34, (4S,4b′R,8a′S,9′R,E)-1,3-diethyl-N′,8a′-dihydroxy-11′-methyl-2,5-dioxo-8′,8a′,9′,10′-tetrahydro-5′H,7′H-spiro[imidazolidine-4,6′-[9,4b](epiminoethano)phenanthrene]-3′-carboximidamide] | – | 17200 ± 1200 | 29.7 ± 1.18 | – | –
